IC50 data for 16 molecules are collected here from patent US12281122B1, “PI3K inhibitors” (Cogent Biosciences, Inc., priority 2023, dated 2025).

The test system of experiment [1] is SKBR3 (PI3Kα-Wild Type) cell line. In words: HTRF phospho-AKT(S473) cell assay in SKBR3 cells. The settings on record: Homo sapiens, SK-BR-3; SKBR3 (PI3Kα-Wild Type) cells, HTRF phospho-AKT(S473), 2 hours compound incubation, PDGF-BB stimulated. It is filed as cell-based, human. The procedure, abridged: (§1)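 T47D: RPMI + 10% FBS + 0.2 units/mL insulin, top 5 μM. SKBR3: McCoy's 5A + 10% FBS, top 10 μM, 70 ng/ml PDGF-BB last 15 min. Both: 12-pt 1:3, 2 h, 37° C, max 0.5% DMSO; HTRF pAKT(S473); IC50.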
(In general: TR-FRET usually uses a lanthanide donor and a delayed reading to cut background.)

The target of another experiment is PI3Kα H1047R (Homo sapiens, UniProt P42336, H1047R). In words: PI3Kα H1047R enzyme assay (Transcreener ADP2 TR-FRET Red Assay). It is filed as biochemical. The settings on record: purified recombinant full-length protein; 2 hours pre-incubation with compound. Here is the method:
(§2) Activity against PI3Kα and PI3Kα H1047R enzymes were determined in biochemical assays using purified recombinant full-length proteins with the Transcreener ADP^2 TR-FRET Red Assay from Bellbrook Labs. (Catalogue number 3011-10K). Test compounds were dissolved in DMSO and were tested in 11 point 1:3 serial dilutions, typical final concentration range from 50,000 nM to 0.85 nM. Enzymes were pre-incubated with compounds for 2 hours at room temperature prior to initiating the reactions. Assays were initiated with a 2×ATP/PI(4,5)P2 diC8 substrate mixture. After 60 minutes at room temperature, the reactions were quenched with detection reagent and incubated for an additional 60 minutes at room temperature. The plates were read using a multimode reader and the emission ratio of 665 nm to 615 nm was determined. This ratio was converted to percent of control (POC). [1-(high control-sample signal)/(high control-low control)]*100. Wells without compound were used to determine high control values and wells without enzyme were used to determine low control values. The POC values were fit using a four-parameter logistic model and the value where the fit curve was equal to 50 POC was reported as the IC50 using the Signals VitroVivo software package (PerkinElmer). Final assay conditions were: 40 mM HEPES pH 7.5, 20 mM NaCl, 25 mM MgCl2, 0.01% Triton X-100. The enzyme source, catalogue number, final enzyme concentration, and final ATP and PI(4,5)P2 diC8 concentration can be found in the table E10 below.

The subject of experiment [2] is T47D (PI3Kα-H1047R) cell line. In words: HTRF phospho-AKT(S473) cell assay in T47D cells. It is filed as cell-based, human. The settings on record: Homo sapiens; T47D (PI3Kα-H1047R) cells, HTRF phospho-AKT(S473), 2 hours compound incubation. The procedure, abridged: as §1
The target in a further experiment is PI3Kα (Homo sapiens, UniProt P42336). In words: PI3Kα enzyme assay (Transcreener ADP2 TR-FRET Red Assay). It is filed as biochemical. The settings on record: purified recombinant full-length protein; 2 hours pre-incubation with compound; read-out: PI3Kα WT IC50. Here is the method:
as §2

Sequence of PI3Kα (P42336 whole entry): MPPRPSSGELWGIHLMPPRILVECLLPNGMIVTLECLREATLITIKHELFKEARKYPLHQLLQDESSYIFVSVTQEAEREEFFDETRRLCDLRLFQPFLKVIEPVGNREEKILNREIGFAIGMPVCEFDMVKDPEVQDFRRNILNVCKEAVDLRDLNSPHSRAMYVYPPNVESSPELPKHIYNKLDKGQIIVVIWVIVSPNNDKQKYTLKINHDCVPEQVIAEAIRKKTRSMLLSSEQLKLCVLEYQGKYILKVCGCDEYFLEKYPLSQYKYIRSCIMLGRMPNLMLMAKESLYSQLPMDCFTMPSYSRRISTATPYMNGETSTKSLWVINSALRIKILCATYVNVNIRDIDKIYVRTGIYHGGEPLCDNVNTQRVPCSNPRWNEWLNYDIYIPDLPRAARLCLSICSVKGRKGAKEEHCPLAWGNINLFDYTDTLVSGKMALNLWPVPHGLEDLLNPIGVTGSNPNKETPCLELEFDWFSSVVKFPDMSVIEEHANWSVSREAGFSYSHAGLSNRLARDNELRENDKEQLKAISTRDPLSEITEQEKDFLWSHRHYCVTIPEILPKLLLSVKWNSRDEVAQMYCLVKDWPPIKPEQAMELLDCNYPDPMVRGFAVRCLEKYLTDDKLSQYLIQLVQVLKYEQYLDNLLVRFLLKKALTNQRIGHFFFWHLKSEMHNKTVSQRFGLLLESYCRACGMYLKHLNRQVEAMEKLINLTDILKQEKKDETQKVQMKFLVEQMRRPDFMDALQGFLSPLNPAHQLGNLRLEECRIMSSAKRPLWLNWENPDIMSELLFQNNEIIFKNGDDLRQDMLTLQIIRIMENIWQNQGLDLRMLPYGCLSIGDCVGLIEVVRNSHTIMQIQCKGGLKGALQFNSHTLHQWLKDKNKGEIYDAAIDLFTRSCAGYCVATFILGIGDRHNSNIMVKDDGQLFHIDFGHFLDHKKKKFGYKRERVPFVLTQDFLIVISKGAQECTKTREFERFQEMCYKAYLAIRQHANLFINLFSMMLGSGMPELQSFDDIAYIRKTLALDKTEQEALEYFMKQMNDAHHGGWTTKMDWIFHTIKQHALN
Sequence of PI3Kα (P27986 2-724 partner): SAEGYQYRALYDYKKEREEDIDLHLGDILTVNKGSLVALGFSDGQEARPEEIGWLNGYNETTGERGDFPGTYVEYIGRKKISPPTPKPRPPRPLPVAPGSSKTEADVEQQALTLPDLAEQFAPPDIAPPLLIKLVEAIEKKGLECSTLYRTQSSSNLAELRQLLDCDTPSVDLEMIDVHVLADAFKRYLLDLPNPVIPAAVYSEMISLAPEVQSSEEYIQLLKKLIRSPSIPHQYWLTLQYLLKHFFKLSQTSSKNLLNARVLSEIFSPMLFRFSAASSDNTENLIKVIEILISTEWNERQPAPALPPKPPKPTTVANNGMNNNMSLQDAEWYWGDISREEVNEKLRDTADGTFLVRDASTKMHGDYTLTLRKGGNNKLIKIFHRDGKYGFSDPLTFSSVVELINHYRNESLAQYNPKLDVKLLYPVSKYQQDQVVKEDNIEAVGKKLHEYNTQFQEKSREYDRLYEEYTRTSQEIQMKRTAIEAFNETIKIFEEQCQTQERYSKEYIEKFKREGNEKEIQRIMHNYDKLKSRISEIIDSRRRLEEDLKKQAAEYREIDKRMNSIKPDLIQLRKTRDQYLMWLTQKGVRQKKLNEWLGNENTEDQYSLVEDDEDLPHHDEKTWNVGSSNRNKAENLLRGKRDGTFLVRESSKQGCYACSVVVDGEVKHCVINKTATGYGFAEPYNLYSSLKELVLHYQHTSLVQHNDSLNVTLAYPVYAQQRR
Sequence of PI3Kα H1047R (P42336 whole entry H1047R): as the sequence (P42336 whole entry) above, with H1047R counted along it
Sequence of PI3Kα H1047R (P27986 2-724 partner): as the sequence (P27986 2-724 partner) above

By IC50 is commonly meant the concentration that gives 50% inhibition. In the case of `Cc1cc([C@@H](C)Nc2ccc(Cl)nc2C(=O)NS(C)(=O)=O)c2nc(C3CCCCC3)n(C)c(=O)c2c1` [Compound 92, (R)-6-chloro-3-((1-(2-cyclohexyl-3,6-dimethyl-4-oxo-3,4-dihydroquinazolin-8-yl)ethyl)amino)-N-(methylsulfonyl) picolinamide], the IC50 in experiment [1] is 1 to 5 µM; on PI3Kα H1047R, under 0.1 µM; in experiment [2] it was under 0.25 µM; at PI3Kα, at least 1 µM.
For `C[C@@H](Nc1ccc(Cl)nc1C(=O)NS(C)(=O)=O)c1cc(F)cc2c(=O)n(C)c(N3CC4CC4C3)nc12` (stereo partly drawn) [Compound 29, 3-(((1R)-1-(2-(3-azabicyclo[3.1.0]hexan-3-yl)-6-fluoro-3-methyl-4-oxo-3,4-dihydroquinazolin-8-yl)ethyl)amino)-6-chloro-N-(methylsulfonyl) picolinamide], in that order: 1 to 5 µM, 0.25 to 0.5 µM, 0.25 to 0.5 µM and at least 1 µM.
Regarding `Cc1cc([C@@H](C)Nc2ccc(F)cc2C(=O)NS(C)(=O)=O)c2nc(N3Cc4ccc(F)cc4C3)n(C)c(=O)c2c1` [Compound 63, (R)-5-fluoro-2-((1-(2-(5-fluoro-isoindolin-2-yl)-3,6-dimethyl-4-oxo-3,4-dihydroquinazolin-8-yl)ethyl)amino)-N-(methylsulfonyl) benzamide], the IC50 in experiment [1] was 1 to 5 µM; on PI3Kα H1047R, at least 1 µM; in experiment [2], 1 to 5 µM; on PI3Kα it was at least 1 µM.
`Cc1cc([C@@H](C)Nc2ccccc2S(N)(=O)=O)c2nc(N3Cc4ccc(F)cc4C3)n(C)c(=O)c2c1` (single isomer, unassigned) [Compound 104, 2-((1-(2-(5-fluoroisoindolin-2-yl)-3,6-dimethyl-4-oxo-3,4-dihydroquinazolin-8-yl)ethyl)amino) benzenesulfonamide]: the IC50 was at least 5 µM in experiment [1], at least 1 µM at PI3Kα H1047R, 0.25 to 0.5 µM in experiment [2] and at least 1 µM at PI3Kα.
With `C[C@@H](Nc1cccnc1C(=O)NS(C)(=O)=O)c1cccc2c(=O)n(C)c(N3Cc4ccc(F)cc4C3)nc12` [Compound 59, (R)-3-((1-(2-(5-fluoroisoindolin-2-yl)-3-methyl-4-oxo-3,4-dihydroquinazolin-8-yl)ethyl)amino)-N-(methylsulfonyl) picolinamide], the IC50 in experiment [1] was at least 5 µM; at PI3Kα H1047R it was at least 1 µM; in experiment [2], 1 to 5 µM; at PI3Kα it was at least 1 µM.
As for `Cc1cc([C@@H](C)Nc2ccc(Cl)nc2S(=O)(=O)NC(=O)C2CC2)c2nc(N3Cc4ccc(F)cc4C3)n(C)c(=O)c2c1` [Compound 79, (R)-N-((6-chloro-3-((1-(2-(5-fluoroisoindolin-2-yl)-3,6-dimethyl-4-oxo-3,4-dihydroquinazolin-8-yl)ethyl)amino)pyridin-2-yl)sulfonyl)cyclopropane-carboxamide], the half-maximal inhibitory concentration (IC50) in experiment [1] is at least 5 µM; at PI3Kα H1047R it was 0.1 to 0.25 µM; in experiment [2], 0.25 to 0.5 µM; on PI3Kα, at least 1 µM.
As for `C[C@@H](Nc1ccc(Cl)nc1C(=O)NS(C)(=O)=O)c1cc(F)cc2c(=O)n(C)c(N3CCc4ccccc4C3)nc12` [Compound 31, (R)-6-chloro-3-((1-(2-(3,4-dihydroisoquinolin-2(1H)-yl)-6-fluoro-3-methyl-4-oxo-3,4-dihydroquinazolin-8-yl)ethyl)amino)-N-(methylsulfonyl) picolinamide], the IC50 in experiment [1] is 1 to 5 µM; at PI3Kα H1047R it was 0.1 to 0.25 µM; in experiment [2] it was 0.25 to 0.5 µM; on PI3Kα it was at least 1 µM.
Consider `Cc1cc([C@@H](C)Nc2ccc(Cl)nc2C(=O)NS(C)(=O)=O)c2nc(OCC3CC3)n(C)c(=O)c2c1` [Compound 51, (R)-6-chloro-3-((1-(2-(cyclopropylmethoxy)-3,6-dimethyl-4-oxo-3,4-dihydroquinazolin-8-yl)ethyl)amino)-N-(methylsulfonyl) picolinamide], for which the IC50 was 0.5 to 1 µM in experiment [1], under 0.1 µM on PI3Kα H1047R, under 0.25 µM in experiment [2] and at least 1 µM on PI3Kα.
For `C[C@@H](Nc1cccnc1C(=O)NS(C)(=O)=O)c1cc(F)cc2c(=O)n(C)c(N3Cc4ccc(F)cc4C3)nc12` [Compound 60, (R)-3-((1-(6-fluoro-2-(5-fluoro-isoindolin-2-yl)-3-methyl-4-oxo-3,4-dihydroquinazolin-8-yl)ethyl)amino)-N-(methylsulfonyl) picolinamide], the IC50 is 1 to 5 µM in experiment [1], at least 1 µM at PI3Kα H1047R, 1 to 5 µM in experiment [2] and at least 1 µM at PI3Kα.
Take `Cc1cc([C@@H](C)Nc2ccc(Cl)nc2C(=O)NS(C)(=O)=O)c2nc(N3Cc4cn(CC(F)(F)F)nc4C3)n(C)c(=O)c2c1` [Compound 54, (R)-6-chloro-3-((1-(3,6-dimethyl-4-oxo-2-(2-(2,2,2-trifluoroethyl)-2,6-dihydropyrrolo[3,4-c]pyrazol-5(4H)-yl)-3,4-dihydroquinazolin-8-yl)ethyl)amino)-N-(methylsulfonyl) picolinamide]: the IC50 was 1 to 5 µM in experiment [1], 0.1 to 0.25 µM at PI3Kα H1047R, under 0.25 µM in experiment [2] and at least 1 µM at PI3Kα.
Turning to `Cc1cc([C@@H](C)Nc2ccc(Cl)nc2C(=O)NS(C)(=O)=O)c2nc(NC34CC(C3)C4)n(C)c(=O)c2c1` [Compound 6, (R)-3-((1-(2-(bicyclo[1.1.1]pentan-1-ylamino)-3,6-dimethyl-4-oxo-3,4-dihydroquinazolin-8-yl)ethyl)amino)-6-chloro-N-(methylsulfonyl) picolinamide], the IC50 in experiment [1] is at least 5 µM; on PI3Kα H1047R, at least 1 µM; in experiment [2], 1 to 5 µM; at PI3Kα, at least 1 µM.
Turning to `Cc1cc([C@H](C)Nc2ccccc2S(N)(=O)=O)c2nc(N3Cc4ccc(F)cc4C3)n(C)c(=O)c2c1` (single isomer, unassigned) [Compound 105, 2-((1-(2-(5-fluoroisoindolin-2-yl)-3,6-dimethyl-4-oxo-3,4-dihydroquinazolin-8-yl)ethyl)amino) benzenesulfonamide], the IC50 is at least 5 µM in experiment [1], at least 1 µM at PI3Kα H1047R, 1 to 5 µM in experiment [2] and at least 1 µM on PI3Kα.
In the case of `Cc1cc([C@@H](C)Nc2ccc(Cl)nc2C(=O)NS(C)(=O)=O)c2nc(N3CCc4ccccc4[C@H]3C)n(C)c(=O)c2c1` (mixture of isomers) [Compound 19, 6-chloro-3-(((R)-1-(3,6-dimethyl-2-((R)-1-methyl-3,4-dihydroisoquinolin-2(1H)-yl)-4-oxo-3,4-dihydroquinazolin-8-yl)ethyl)amino)-N-(methylsulfonyl) picolinamide AND 6-chloro-3-(((R)-1-(3,6-dimethyl-2-((S)-1-methyl-3,4-dihydroisoquinolin-2(1H)-yl)-4-oxo-3,4-dihydroquinazolin-8-yl)ethyl)amino)-N-(methylsulfonyl) picolinamide], the IC50 in experiment [1] is at least 5 µM; on PI3Kα H1047R, at least 1 µM; in experiment [2], 0.5 to 1 µM; on PI3Kα, at least 1 µM.
Regarding `Cc1cc([C@@H](C)Nc2ccc(Cl)[nH]c2=O)c2nc(N3Cc4ccc(F)cc4C3)n(C)c(=O)c2c1` [Compound 93, (R)-8-(1-((6-chloro-2-oxo-1,2-dihydropyridin-3-yl)amino)ethyl)-2-(5-fluoroisoindolin-2-yl)-3,6-dimethylquinazolin-4(3H)-one], the half-inhibitory concentration (IC50) in experiment [1] was at least 5 µM; on PI3Kα H1047R it was at least 1 µM; in experiment [2], under 0.25 µM; on PI3Kα, at least 1 µM.
Take `Cc1cc([C@@H](C)Nc2ccc(Cl)nc2C(=O)NS(C)(=O)=O)c2nc(NCC3(C(F)(F)F)CC3)n(C)c(=O)c2c1` [Compound 24, (R)-6-chloro-3-((1-(3,6-dimethyl-4-oxo-2-(((1-(trifluoromethyl)cyclopropyl)methyl)amino)-3,4-dihydroquinazolin-8-yl)ethyl)amino)-N-(methylsulfonyl) picolinamide]: the IC50 in experiment [1] is 1 to 5 µM; on PI3Kα H1047R, 0.25 to 0.5 µM; in experiment [2], 0.25 to 0.5 µM; at PI3Kα, at least 1 µM.
Regarding `C[C@@H](Nc1ccc(Cl)nc1C(=O)NS(C)(=O)=O)c1cc(F)cc2c(=O)n(C)c(N3Cc4ccc(F)cc4C3)nc12` [Compound 66, (R)-6-chloro-3-((1-(6-fluoro-2-(5-fluoroisoindolin-2-yl)-3-methyl-4-oxo-3,4-dihydroquinazolin-8-yl)ethyl)amino)-N-(methylsulfonyl) picolinamide], the IC50 is 1 to 5 µM in experiment [1], 0.1 to 0.25 µM at PI3Kα H1047R, 0.25 to 0.5 µM in experiment [2] and under 0.1 µM on PI3Kα.
